Assay results taken from patent publication US9855283B2, “Composition comprising GPCR19 agonist as an active ingredient for preventing or treating allergic dermatitis” (SHAPERON Inc., priority 2013, dated 2018).

Experiments:
[1] = tested on: atopic dermatitis lesions on shaved-back of Balb/C mice; experiment: Clinical score of DNCB-induced atopic dermatitis lesions (five items, worst score 15); type: in vivo; details: day 15
Method: (§1) In order to test efficacy of the sodium taurodeoxycholate (HY2191) composition on atopic dermatitis, dermatitis lesion was induced at the shaved-back of 6 weeks old male Balb/C mice. DNCB (2,4-dinitro-1-chlorobenzene, Sigma) was used as a hapten.
Five mice for each group were tested. The amount of IgE in blood of mice was measured to evaluate an inhibitory effect of a medication on IgE production. To make skin lesion of atopic dermatitis, 100 μL of a DNCB solution (2.5% in acetone) was applied on the shaved-back of the mouse at day 1. One hundred μL of DNCB (1% in acetone) was applied at day 4 and 100 μL of 0.2% DNCB in acetone at day 10. […]
In order to evaluate the efficacy of sodium taurodeoxycholate on atopic dermatitis, atopic dermatitis was induced on shaved-back of Balb/C mice with DNCB according to experimental example 1 and clinical scores of atopic dermatitis lesions incurred on the back of animal model was evaluated on day 15. To evaluate clinical scores at day 15, (1) the frequency of scratching for 2 minutes, (2) the severity of erythema/hemorrhage, (3) edema, (4) excoriation/erosion, and (5) scaling/dryness were graded and were scored from 0 (none) to 3 (severe), making the worst score 15 for the most severe subject. The every subject in every group was evaluated by three people in a double-blind method. The mean clinical score of individual mouse was calculated.

serum IgE = experiment: Serum IgE level by ELISA in DNCB-induced atopic dermatitis mice; type: in vivo, Balb/C mice; details: FIG. 3
Method: as §1
(§2) Five mice for each group were tested. The amount of IgE in blood of mice was measured to evaluate an inhibitory effect of a medication on IgE production. To make skin lesion of atopic dermatitis, 100 μL of a DNCB solution (2.5% in acetone) was applied on the shaved-back of the mouse at day 1. One hundred μL of DNCB (1% in acetone) was applied at day 4 and 100 μL of 0.2% DNCB in acetone at day 10.
(§3) From the day 7 to the day 14, 100 μL of the composition of 2.5% or 5% sodium taurodeoxycholate (HY2191) of example 1 was applied on the back of mice twice a day. Maxidex ointment (Dexamethasone, Alcon Korea) and Protopic ointment (Tacrolimus, Astellas Pharma Korea) were used for positive control groups and only a vehicle was used for a negative control group.
After the clinical evaluation described at Experimental Example 2, a mixture containing 0.4% of Zoletil (Virbac, Milano Italy) and 0.04% of Rompun (Bayer Korea) in normal saline was injected i.p. to anesthetize each mouse. Blood samples were collected from the heart of the mice. The serum was prepared to measure the concentration of IgE using enzyme immunoassay (Mouse IgE ELISA, BD). […]

IFN-γ = experiment: Serum TH1 cytokine IFN-γ by ELISA in DNCB-induced atopic dermatitis mice; type: in vivo, Balb/C mice; details: 5% composition; far better than mice treated with Protopic or Maxidex (p<0.05)
IL-2 = experiment: Serum TH1 cytokine IL-2 by ELISA in DNCB-induced atopic dermatitis mice; type: in vivo, Balb/C mice; details: 5% composition; far better than mice treated with Protopic or Maxidex (p<0.05)
IL-4 = experiment: Serum TH2 cytokine IL-4 by ELISA in DNCB-induced atopic dermatitis mice; type: in vivo, Balb/C mice; details: 5% composition; better than mice treated with Protopic or Maxidex (p<0.05)
[2] = tested on: dorsal skin of atopic mice; experiment: Histopathology (H&E) of dorsal skin: thickness of epidermis and dermis; type: in vivo, Balb/C mice; details: for thickness of the epidermis: DNCB only 320.2±21.6 μm, sham 26.1±1.0 μm; for thickness of dermis: DNCB only 930.2±34.2 μm, sham 384.7±11.4 μm
Method: In order to test efficacy of the sodium taurodeoxycholate (HY2191) composition on atopic dermatitis, dermatitis lesion was induced at the shaved-back of 6 weeks old male Balb/C mice. DNCB (2,4-dinitro-1-chlorobenzene, Sigma) was used as a hapten. Five mice for each group were tested. The amount of IgE in blood of mice was measured to evaluate an inhibitory effect of a medication on IgE production. To make skin lesion of atopic dermatitis, 100 μL of a DNCB solution (2.5% in acetone) was applied on the shaved-back of the mouse at day 1. One hundred μL of DNCB (1% in acetone) was applied at day 4 and 100 μL of 0.2% DNCB in acetone at day 10. From the day 7 to the day 14, 100 μL of the composition of 2.5% or 5% sodium taurodeoxycholate (HY2191) of example 1 was applied on the back of mice twice a day. Maxidex ointment (Dexamethasone, Alcon Korea) and Protopic ointment (Tacrolimus, Astellas Pharma Korea) were used for positive control groups and only a vehicle was used for a negative control group. The dorsal skin flaps of the mice were fixed in a 10% formalin solution for 24 hours and then washed with distilled water. The paraffin blocks of the fixed skins were prepared and sectioned (thickness of 7 μm). They were stained with hematoxylin and eosin (H&E) (FIG. 5A). The thickness of epidermis and the dermis of mice treated with DNCB only were 320.2±21.6 μm and 930.2±34.2 μm, respectively. […] The thickness of dermis from the group of atopic mice treated with 2.5% sodium taurodeoxycholate (HY2191), 5% sodium taurodeoxycholate (HY2191), or Protopic were 616.0±21.1 μm, 521.7±18.3 μm, and 572.6±20.2 μm, respectively.

mast cells = experiment: Mast cells infiltrated into the dermis (toluidine blue); type: in vivo, Balb/C mice; details: compared with vehicle-treated group (p<0.05)
Method: as §1, §2, §3
(§4) The number of mast cells, eosinophils, and neutrophils infiltrated into the dermis were counted after staining skins with toluidine blue, congo red, or specific esterase (Naphthol AS-D chloroacetate), respectively. […] On the other hand, the number of neutrophils critical for acute inflammation was increased in the group of atopic mice treated with Protopic.

eosinophils = experiment: Eosinophils infiltrated into the dermis (congo red); type: in vivo, Balb/C mice; details: compared with vehicle-treated group (p<0.05)
Method: as §1, §2, §3, §4

neutrophils = experiment: Neutrophils infiltrated into the dermis (specific esterase, Naphthol AS-D chloroacetate); type: in vivo, Balb/C mice; details: compared with vehicle-treated group
Method: as §1, §2, §3, §4

C[C@H](CCC(=O)NCCS(=O)(=O)O)[C@H]1CC[C@H]2[C@@H]3CC[C@@H]4C[C@H](O)CC[C@]4(C)[C@H]3C[C@H](O)[C@]12C [sodium taurodeoxycholate (HY2191), sodium taurodeoxycholate]
clinical scores ([1]; 5% composition, compared to positive control group that received Maxidex ointment or Protopic ointment): better clinical scores
clinical score ([1]; compared to negative control group treated with vehicle only, topical twice a day, day 7 to 14): better clinical score
inhibiting serum IgE production (serum IgE; 2.5% or 5% composition): effective in inhibiting serum IgE production
serum IgE levels (serum IgE; compared with positive control groups (Maxidex ointment or Protopic ointment)): significantly lower
level of IFN-γ (TH1 cytokine) in serum (IFN-γ): increased significantly
level of IL-2 (TH1 cytokine) in serum (IL-2): increased significantly
level of IL-4 (TH2 cytokine) in serum (IL-4): decreased significantly
thickness of the epidermis ([2]; 2.5% composition): 105.3±7.0 μm
thickness of dermis ([2]; 2.5% composition): 616.0±21.1 μm
thickness of the epidermis ([2]; 5% composition): 75.0±8.4 μm
thickness of dermis ([2]; 5% composition): 521.7±18.3 μm
number of mast cells in the skin of atopic mice (mast cells): significantly decreased
number of eosinophils in the skin of atopic mice (eosinophils): significantly decreased
number of neutrophils in the skin of atopic mice (neutrophils): significantly decreased
